Read-outs that look alike come from different tables or passages of the source. Each block holds one compound with its values, some of them ahead of it.
Key:
[1] = type: physicochemical
Experimental: Partition coefficients also were determined by the same procedures for using the inert organic solvents 1-decanol (alcohol), isobutyl isobutyrate (ester, IBIB), 2,2,4-trimethyl-1,3-pentanediol monoisobutyrate (alcohol ester, TMPD-MIB), and dimethyl terphthalate (aromatic diester, DMT).

[2] = Solvent partition coefficient into water, with and without 3-FTHF co-solvent (Examples 45-56); type: physicochemical; details: no co-solvent; H2O:(S + CS) 1:1
Excerpt: These examples include materials which could act as solvents for the reaction and extraction.

[3] = Hydration equilibrium 3-FTHF/3-DHMTHF in water by proton nuclear magnetic resonance; type: physicochemical
Experimental: The maximum density shown in Table I corresponds approximately to the composition for 3-DHMTHF. […] Confirmation of the formation of 3-DHMTHF when 3-FTHF is added to water comes from proton Nuclear Magnetic Resonance spectroscopy. At room temperature, 50 weight percent solutions of aqueous 3-FTHF show two components: 79 mole percent 3-DHMTHF and only 21 mole percent 3-FTHF. Furthermore, changing the water concentration either directly or by using water miscible solvents reversibly changes the 3-DHMTHF:3-FTHF mole ratio indicating a rapidly established equilibrium between the two components as well as showing their relative stability. The relative amounts of 3-FTHF and 3-DHMTHF at varying water/3-FTHF concentrations as determined by proton nuclear magnetic resonance spectroscopy are shown in Table II wherein the values given for "Water", "3-FTHF" and "Solvent" are weight percentages based on the total weight of the 3 component composition and "Solvent" refers to CD3 COCD3 (NMR solvent).
In Table II the value given for the 3-FTHF component is the amount of 3-FTHF dissolved in the composition although in aqueous solution it exists both as 3-FTHF and 3-DHMTHF. Some of the 3-FTHF in the water solution also exists in the form of an acetal, e.g., depending on the concentration, up to about 70 mole percent (at very high concentrations) but usually only about 0.5 mole percent (at 50 weight percent concentration) of the 3-FTHF is in the form of an acetal having the structure: [drawing 4] wherein n is 2.

[4] = 3-FTHF solubility in solvent; type: physicochemical
Experimental: Partition coefficients also were determined by the same procedures for using the inert organic solvents 1-decanol (alcohol), isobutyl isobutyrate (ester, IBIB), 2,2,4-trimethyl-1,3-pentanediol monoisobutyrate (alcohol ester, TMPD-MIB), and dimethyl terphthalate (aromatic diester, DMT). The 3-FTHF:Solvent:Water volume ratios used in each of Examples 37-44 was 3:3:4. The partition coefficients are shown in Table VI wherein the values specified for 3-FTHF Solubility in Solvent are weight percentages, the values given for Temp are the temperatures (° C.), K3FTHF is the partition coefficient for 3-FTHF determined as described above and Ksolvent is the coefficient for the solvent utilized in each example determined form its solubility in the two phase and affected by the presence of the 3-FTHF substrate.

[5] = Share of diol, hemiacetal or acetal in aqueous solution; type: physicochemical
[6] = Partition coefficient of triphenylphosphine between toluene and water; type: physicochemical
Excerpt: Rhodium, the other component of the catalyst, exists primarily as rhodium (I) hydrido carbonyl bis (triphenylphosphine) complex and accompanies the triphenylphosphine with a similar partition coefficient.

[7] = 3-FTHF:Solvent:Water 3:3:4 by volume, 24.1-25.7 °C
[8] = 50 weight percent aqueous 3-FTHF, room temperature
[9] = Water 6.1, 3-FTHF 6.3, CD3COCD3 87.6 wt %
[10] = Water 10.4, 3-FTHF 13.8, CD3COCD3 75.8 wt %
[11] = Water 15.2, 3-FTHF 20.2, CD3COCD3 64.6 wt %
[12] = Water 19.8, 3-FTHF 26.2, CD3COCD3 54.0 wt %
[13] = Water 24.1, 3-FTHF 32.0, CD3COCD3 43.9 wt %
[14] = Water 31.4, 3-FTHF 43.5, CD3COCD3 25.1 wt %
[15] = Water 36.9, 3-FTHF 46.6, CD3COCD3 16.5 wt %
[16] = Water 37.6, 3-FTHF 54.4, CD3COCD3 8.0 wt %
[17] = Water 45.0, 3-FTHF 55.0, CD3COCD3 0.0 wt %

Compound: CCCCCCCCCCO [1-Decanol, 1-decanol, reference compound]
KSolvent partition coefficient [1, 7]: 0.01695
Solvent Partition Coefficient [2]: 0.00028

Compound: CC(C)c1cccc(C(C)C)c1 [DIPB, 1,3-diisopropylbenzene, reference compound]
KSolvent partition coefficient [1, 7]: 0.01904

Compound: COC(=O)c1ccccc1C(=O)OC [DMP, dimethyl phthalate]
Solvent Partition Coefficient [2]: 0.00731

Compound: CC(C)COC(=O)C(C)C [IBIB, isobutyl isobutyrate, reference compound]
KSolvent partition coefficient [1, 7]: 0.00772
Solvent Partition Coefficient [2]: 0.00116

Compound: CC(C)CC(C)(C)C [Isooctane, isooctane, reference compound]
KSolvent partition coefficient [1]: 0.00746

Compound: CCCCCCCCCC [n-Decane, decane, reference compound]
KSolvent partition coefficient [1]: 0.00661

Compound: Cc1ccc(C)cc1 [p-Xylene, p-xylene, reference compound]
KSolvent partition coefficient [1, 7]: 0.0074
Solvent Partition Coefficient [2]: 0.00015

Compound: c1ccc(P(c2ccccc2)c2ccccc2)cc1 [triphenylphosphine]
effective partition coefficient of triphenylphosphine ([6]; 10 percent emulsion): 0.095
partition coefficient of triphenylphosphine between toluene and water ([6]; Example 57, 50:1 triphenylphosphine:toluene, 1:1 water:triphenylphosphine+toluene by volume): 0.00433
partition coefficient of triphenylphosphine ([6]; aqueous/toluene, room temperature, 50 weight percent water in aqueous phase): 0.0043

Now from value to compound:

KSolvent partition coefficient [1]: 0.00481
Compound: 2,2,4-trimethyl-1,3-pentanediol monoisobutyrate [TMPD-MIB, reference compound]

Mole Percent in equilibrium [3, 8]: 79 mole percent
Mole Percent in equilibrium [3, 9]: 21.6 Mole Percent
Mole Percent in equilibrium [3, 10]: 31.2 Mole Percent
Mole Percent in equilibrium [3, 11]: 41.9 Mole Percent
Mole Percent in equilibrium [3, 12]: 48.9 Mole Percent
Mole Percent in equilibrium [3, 13]: 56.6 Mole Percent
Mole Percent in equilibrium [3, 14]: 66.7 Mole Percent
Mole Percent in equilibrium [3, 15]: 71.2 Mole Percent
Mole Percent in equilibrium [3, 16]: 75.1 Mole Percent
Mole Percent in equilibrium [3, 17]: 79.0 Mole Percent
Compound: OC(O)C1CCOC1 (stereo not shown) [3-DHMTHF, 3-Dihydroxymethyltetrahydrofuran]

3-FTHF Solubility in Solvent ([4]; in 1-decanol): 100 weight percentages
3-FTHF Solubility in Solvent ([4]; in DIPB): 100 weight percentages
3-FTHF Solubility in Solvent ([4]; in DMT): 100 weight percentages
3-FTHF Solubility in Solvent ([4]; in IBIB): 100 weight percentages
3-FTHF Solubility in Solvent ([4]; in TMPD-MIB): 100 weight percentages
3-FTHF Solubility in Solvent ([4]; in isooctane): 2.36 weight percentages
3-FTHF Solubility in Solvent ([4]; in n-decane): 0.93 weight percentages
3-FTHF Solubility in Solvent ([4]; in p-xylene): 100 weight percentages
3-FTHF Solubility in Solvent ([4]; in toluene): 100 weight percentages
Mole Percent in equilibrium [3, 8]: 21 mole percent
Mole Percent in equilibrium [3, 9]: 78.4 Mole Percent
Mole Percent in equilibrium [3, 10]: 68.8 Mole Percent
Mole Percent in equilibrium [3, 11]: 58.1 Mole Percent
Mole Percent in equilibrium [3, 12]: 51.1 Mole Percent
Mole Percent in equilibrium [3, 13]: 43.4 Mole Percent
Mole Percent in equilibrium [3, 14]: 33.3 Mole Percent
Mole Percent in equilibrium [3, 15]: 28.8 Mole Percent
Mole Percent in equilibrium [3, 16]: 24.9 Mole Percent
Mole Percent in equilibrium [3, 17]: 21.0 Mole Percent
3-FTHF in the form of an acetal (n is 2) ([5]; at 50 weight percent concentration): about 0.5 mole percent
3-FTHF in the form of an acetal (n is 2) ([5]; at very high concentrations): up to 70 mole percent
Compound: O=CC1CCOC1 (stereo not shown) [3-FTHF, 3-formyltetrahydrofuran]

KSolvent partition coefficient [1]: 0.02526
Compound: COC(=O)c1ccc(C(=O)OC)cc1 [DMT, dimethyl terphthalate, reference compound]

Source: US5945549A, “Production of aqueous solutions of mixtures of formyltertrahydrofuran and hydrates thereof” (Eastman Chemical Company, priority 1999, dated 1999)
